Assay results as given in patent US20250090507A1, “Methods of Treating Cancer With a B-RAF Inhibitor” (MapKure, LLC, priority 2022, published 2025).
“Also recorded” adds a separate entry of the source.

What was measured:
[1] = test system: patients with tumors harboring B-RAF or K-RAS/N-RAS mutations; assay: Phase 1 study: tumor response by investigators using RECIST v1.1; assay type: in vivo, human
Experimental: Objective response rate was defined as the proportion of patients who had confirmed CR or PR, assessed by the investigator using RECIST v1.1.
Clinical benefit rate was defined as the proportion of patients with best overall response (BOR) of confirmed CR, PR, or SD lasting ≥16 weeks.
Tumor imaging were performed within 21 days prior to the first study treatment. Results of standard of care tests or examinations performed prior to obtaining informed consent and ≤21 days prior to the first administration of IMP may be used for the purposes of screening rather than repeating the standard of care tests. During the study, tumor imaging was performed approximately every 8 (±1) weeks in the first year and approximately every 12 (±1) weeks thereafter. Tumor assessments were required to be performed on schedule regardless of whether study treatment has been administered or held.
Tumor response was assessed by the investigators using RECIST v1.1. The same evaluator should perform assessments, if possible, to ensure internal consistency across visits.
For the analysis of ORR, DCR, and CBR, summary tables presenting the number and proportion of responders with the 2-sided exact (Clopper-Pearson) 95% CI for response rates were presented. Summary of each response category of the BOR (confirmed CR, confirmed PR, unconfirmed CR, unconfirmed PR, SD, or PD) were presented as well. Waterfall plots of maximum tumor shrinkage per patient were presented.
Treatment emergent adverse events (TEAEs) were graded per NCI CTCAE v5.0. Tumor responses were assessed by investigators using RECIST v1.1.

[2] = test system: B-RAF/MEK inhibitor-resistant tumors; assay: Preclinical activity towards resistant tumors; conditions: preclinical studies
Permeability = assay type: in vitro ADME
[3] = pH value of the solid form; assay type: physicochemical; conditions: Form I
Hygroscopicity = assay type: physicochemical; conditions: solid form, Form I
pKa = assay type: physicochemical
Log P = assay type: physicochemical

O=C1CCc2c(Oc3ccc4c(c3)[C@H]3[C@H](NC(=O)Nc5cc(F)c(F)cc5F)[C@H]3O4)ccnc2N1 [Compound A, 1-((1S,1aS,6bS)-5-((7-oxo-5,6,7,8-tetrahydro-1,8-naphthyridin-4-yl)oxy)-1a,6b-dihydro-1H-cyclopropa[b]benzofuran-1-yl)-3-(2,4,5-trifluorophenyl)urea]
clinical benefit rate ([1]; 33 efficacy evaluable patients): 42%
disease control rate ([1]; 33 efficacy evaluable patients): 79%
objective response rate ([1]; 33 efficacy evaluable patients): 18%
Objective responders ([1]; BRAF K601E/PIK3CA endometrial cancer): 1
Objective responders ([1]; BRAF V600E LGSOC): 1
Objective responders ([1]; BRAF V600E cholangiocarcinoma): 1
Objective responders ([1]; BRAF V600E melanoma pts who progressed on prior BRAF/MEK and checkpoint inhibitors (1 CR, 1 PR)): 2
Patients evaluable for tumor response with PR at Week 8 ([1]; Cohort 5 (40 mg QD)): 2 patients
CRC patients with stable disease ([1]; FIG. 1, 2/2 CRC patients): 100%
responders that have melanoma ([1]; FIG. 1, 4/5 responders): 80%
overall response rate ([1]; FIG. 1, 5/22 evaluable patients): 22.7%
melanoma patients with stable disease, partial responses, or complete responses ([1]; FIG. 1, 7/7 melanoma patients): 100%
melanoma patients with partial responses ([1]; FIG. 1, of 7 melanoma patients): 3
melanoma patients with stable disease ([1]; FIG. 1, of 7 melanoma patients): 3
melanoma patients with complete responses ([1]; FIG. 1, of 7 melanoma patients, 1 CT readout): 1
Objective responders ([1]; KRAS G12D appendiceal cancer): 1
Objective responders ([1]; NRAS G12S melanoma): 1
Objective responders ([1]; NRAS Q61K melanoma): 1
confirmed responses ([1]; in 33 efficacy evaluable patients): 6
complete response ([1]; number of patients, 33 efficacy evaluable): one
CR ([1]; number of pts, 42 pts): 1
SD≥24 weeks ([1]; number of pts, 42 pts): 8
cPR ([1]; number of pts, 42 pts): 5
uPR ([1]; number of pts, 42 pts): 2
Antitumor activity ([1]; pts with no approved targeted therapy options / heavily pretreated patients): Antitumor activity was observed; also recorded: encouraging anti-tumor activity was observed
Activity towards resistant tumors [2]: active
Permeability (Permeability; class in words): High
Papp (Permeability; not told): > 10 ×10⁻⁶ cm/s
pH value [3]: 5.76
Hygroscopicity (Hygroscopicity): Hygroscopic
pKa (pKa): 5.28
logP (Log P): > 4.46
